Values belong to the molecule of their own block, whether it stands above or below them.
Tests used:
[1] = molecular target: 5-hydroxytryptamine receptor 1D (Homo sapiens, UniProt P28221); test: Binding affinity to 5HT1D receptor (unknown origin) assessed as inhibition constant
[2] = molecular target: T1, Adenosine receptor A3 (Homo sapiens, UniProt P0DMS8); test: Displacement of […] from human A3AR expressed in HEK cells assessed as inhibition constant; assay type: cell-based
T1 sequence (P0DMS8 whole entry): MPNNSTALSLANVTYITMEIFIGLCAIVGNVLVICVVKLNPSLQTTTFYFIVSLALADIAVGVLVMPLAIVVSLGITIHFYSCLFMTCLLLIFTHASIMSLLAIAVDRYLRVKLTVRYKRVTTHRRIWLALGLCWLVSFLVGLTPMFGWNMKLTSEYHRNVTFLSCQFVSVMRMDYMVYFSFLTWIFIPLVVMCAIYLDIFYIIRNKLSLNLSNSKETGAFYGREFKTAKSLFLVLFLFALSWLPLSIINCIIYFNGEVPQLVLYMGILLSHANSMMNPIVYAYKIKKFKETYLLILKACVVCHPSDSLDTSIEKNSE

[3] = molecular target: T2, 5-hydroxytryptamine receptor 2C (Homo sapiens, UniProt P28335); test: Displacement of [3H]-Mesulergine from human 5-HT2C expressed in Flp-In-T-REx-293 cells assessed as inhibition constant incubated for 1 hr; assay type: cell-based
T2 sequence (P28335 whole entry): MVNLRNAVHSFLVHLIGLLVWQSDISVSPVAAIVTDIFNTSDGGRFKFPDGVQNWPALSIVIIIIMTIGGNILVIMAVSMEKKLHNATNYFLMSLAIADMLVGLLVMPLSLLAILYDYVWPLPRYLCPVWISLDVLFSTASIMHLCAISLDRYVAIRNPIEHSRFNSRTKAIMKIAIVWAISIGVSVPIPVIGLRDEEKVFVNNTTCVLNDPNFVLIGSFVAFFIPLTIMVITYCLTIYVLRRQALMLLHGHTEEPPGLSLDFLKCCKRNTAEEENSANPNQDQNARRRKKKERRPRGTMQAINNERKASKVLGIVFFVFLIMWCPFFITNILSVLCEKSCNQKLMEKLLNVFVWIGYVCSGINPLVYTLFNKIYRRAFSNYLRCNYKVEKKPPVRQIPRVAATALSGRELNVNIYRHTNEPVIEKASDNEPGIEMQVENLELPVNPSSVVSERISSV

[4] = molecular target: T3, Alpha-2B adrenergic receptor (Homo sapiens, UniProt P18089); test: Binding affinity to alpha2B receptor (unknown origin) assessed as inhibition constant
T3 sequence (P18089 whole entry): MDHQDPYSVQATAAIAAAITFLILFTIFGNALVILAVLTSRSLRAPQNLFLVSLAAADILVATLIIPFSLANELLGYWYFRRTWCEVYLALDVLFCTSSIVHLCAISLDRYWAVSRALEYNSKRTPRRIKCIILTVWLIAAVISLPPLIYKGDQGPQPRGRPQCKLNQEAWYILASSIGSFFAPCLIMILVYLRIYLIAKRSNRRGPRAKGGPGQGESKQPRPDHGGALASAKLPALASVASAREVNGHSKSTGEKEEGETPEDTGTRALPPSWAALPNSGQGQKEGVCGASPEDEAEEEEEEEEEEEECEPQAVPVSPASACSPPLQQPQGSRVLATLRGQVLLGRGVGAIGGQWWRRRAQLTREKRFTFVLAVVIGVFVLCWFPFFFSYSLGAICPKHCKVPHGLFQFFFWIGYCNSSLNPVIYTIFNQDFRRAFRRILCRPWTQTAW

[5] = molecular target: Adenosine receptor A2a (Homo sapiens) (UniProt P29274); test: Displacement of […] from human A2AR expressed in HEK cells at 10 uM relative to control; assay type: cell-based
Adenosine receptor A2a (Homo sapiens), sequence (P29274 whole entry): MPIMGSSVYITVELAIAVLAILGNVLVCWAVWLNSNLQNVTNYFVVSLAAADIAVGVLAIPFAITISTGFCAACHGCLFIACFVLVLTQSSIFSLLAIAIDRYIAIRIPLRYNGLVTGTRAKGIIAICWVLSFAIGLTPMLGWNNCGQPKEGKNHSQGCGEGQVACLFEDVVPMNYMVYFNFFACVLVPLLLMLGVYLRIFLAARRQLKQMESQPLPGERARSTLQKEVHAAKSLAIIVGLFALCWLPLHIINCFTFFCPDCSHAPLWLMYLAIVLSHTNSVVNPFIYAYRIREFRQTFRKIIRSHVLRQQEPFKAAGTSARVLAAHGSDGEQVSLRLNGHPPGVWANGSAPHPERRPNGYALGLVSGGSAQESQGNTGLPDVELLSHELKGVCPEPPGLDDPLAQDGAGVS

[6] = molecular target: T4, 5-hydroxytryptamine receptor 2A (Homo sapiens, UniProt P28223); test: Binding affinity to 5HT2A receptor (unknown origin) at 10 uM relative to control
T4 sequence (P28223 whole entry): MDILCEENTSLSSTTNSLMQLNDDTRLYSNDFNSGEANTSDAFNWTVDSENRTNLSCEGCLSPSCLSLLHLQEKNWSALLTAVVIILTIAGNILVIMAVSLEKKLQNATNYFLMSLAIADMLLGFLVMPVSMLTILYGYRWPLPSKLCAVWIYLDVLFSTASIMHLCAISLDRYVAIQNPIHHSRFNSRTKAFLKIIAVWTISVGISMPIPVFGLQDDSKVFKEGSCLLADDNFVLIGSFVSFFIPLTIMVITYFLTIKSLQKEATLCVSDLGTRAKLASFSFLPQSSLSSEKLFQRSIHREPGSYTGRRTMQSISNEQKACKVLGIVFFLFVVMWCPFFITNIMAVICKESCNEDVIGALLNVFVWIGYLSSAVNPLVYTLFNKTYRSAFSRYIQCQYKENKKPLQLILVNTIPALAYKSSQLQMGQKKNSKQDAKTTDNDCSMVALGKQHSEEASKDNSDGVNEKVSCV

[7] = molecular target: T5, 5-hydroxytryptamine receptor 2B (Homo sapiens, UniProt P41595); test: Binding affinity to 5HT2B receptor (unknown origin) at 10 uM relative to control; conditions: filed as antagonist
T5 sequence (P41595 whole entry): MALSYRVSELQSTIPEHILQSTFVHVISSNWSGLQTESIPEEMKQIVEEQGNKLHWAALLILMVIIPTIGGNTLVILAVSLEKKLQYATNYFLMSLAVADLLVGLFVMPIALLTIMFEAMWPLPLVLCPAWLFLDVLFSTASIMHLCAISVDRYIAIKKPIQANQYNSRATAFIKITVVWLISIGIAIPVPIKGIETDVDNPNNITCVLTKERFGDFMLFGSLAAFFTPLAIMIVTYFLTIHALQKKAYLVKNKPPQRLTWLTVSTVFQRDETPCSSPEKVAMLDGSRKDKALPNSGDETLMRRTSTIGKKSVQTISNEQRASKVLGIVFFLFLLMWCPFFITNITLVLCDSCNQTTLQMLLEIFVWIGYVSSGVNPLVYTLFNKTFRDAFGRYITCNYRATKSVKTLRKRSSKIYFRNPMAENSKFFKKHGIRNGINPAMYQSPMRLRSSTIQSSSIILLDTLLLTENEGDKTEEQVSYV

[8] = molecular target: T4, 5-hydroxytryptamine receptor 2A; test: Displacement of [3H]ketanserin from human 5-HT2A receptor expressed in HEK293 cells at 10 uM incubated for 1 hr relative to control; assay type: cell-based
[9] = molecular target: Sodium-dependent dopamine transporter (Homo sapiens, UniProt Q01959); test: Binding affinity to DAT (unknown origin) assessed as inhibition constant
Sodium-dependent dopamine transporter, sequence (Q01959 whole entry): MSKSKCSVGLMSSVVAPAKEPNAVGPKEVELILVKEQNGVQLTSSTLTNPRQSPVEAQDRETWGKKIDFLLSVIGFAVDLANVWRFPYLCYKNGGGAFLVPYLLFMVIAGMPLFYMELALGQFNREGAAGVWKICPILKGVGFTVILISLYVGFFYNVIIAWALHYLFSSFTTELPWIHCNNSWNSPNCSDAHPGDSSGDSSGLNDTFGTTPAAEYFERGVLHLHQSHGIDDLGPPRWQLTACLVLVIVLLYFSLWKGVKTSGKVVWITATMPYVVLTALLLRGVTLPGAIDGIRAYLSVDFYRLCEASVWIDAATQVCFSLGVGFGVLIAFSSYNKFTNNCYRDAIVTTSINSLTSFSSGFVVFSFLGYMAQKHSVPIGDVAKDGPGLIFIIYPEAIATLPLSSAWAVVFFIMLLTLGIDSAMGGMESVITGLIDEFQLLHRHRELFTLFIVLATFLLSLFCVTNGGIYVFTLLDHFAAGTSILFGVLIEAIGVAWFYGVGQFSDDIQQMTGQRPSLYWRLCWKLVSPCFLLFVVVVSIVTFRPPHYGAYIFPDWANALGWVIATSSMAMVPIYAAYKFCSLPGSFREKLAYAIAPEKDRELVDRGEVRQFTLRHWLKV

[10] = molecular target: T6, Adenosine receptor A1 (Homo sapiens) (UniProt P30542); test: Binding affinity to A1AR (unknown origin) at 10 uM relative to control; conditions: filed as agonist
T6 sequence (whole entry): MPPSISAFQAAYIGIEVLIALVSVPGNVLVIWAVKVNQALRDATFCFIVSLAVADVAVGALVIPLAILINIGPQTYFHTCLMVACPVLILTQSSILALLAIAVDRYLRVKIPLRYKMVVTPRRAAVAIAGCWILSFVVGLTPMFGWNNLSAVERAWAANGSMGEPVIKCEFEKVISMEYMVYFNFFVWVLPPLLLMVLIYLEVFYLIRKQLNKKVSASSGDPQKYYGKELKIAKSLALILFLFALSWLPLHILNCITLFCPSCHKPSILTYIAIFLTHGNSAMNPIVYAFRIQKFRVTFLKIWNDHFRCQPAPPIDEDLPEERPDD

[11] = molecular target: T5, 5-hydroxytryptamine receptor 2B; test: Binding affinity to 5HT2B receptor (unknown origin) assessed as inhibition constant
[12] = molecular target: T2, 5-hydroxytryptamine receptor 2C; test: Binding affinity to 5HT2C receptor (unknown origin) assessed as inhibition constant
[13] = molecular target: T7, 5-hydroxytryptamine receptor 2C (Homo sapiens) (UniProt P28335); conditions: Flp-In-T-REx-293, filed as antagonist, time 1.0 hrs
T7 sequence (whole entry): T2 sequence (P28335 whole entry)

[14] = molecular target: T4, 5-hydroxytryptamine receptor 2A; conditions: Flp-In-T-REx-293, time 1.0 hrs
[15] = molecular target: T8, Adenosine receptor A1 (Homo sapiens, UniProt P30542); test: Displacement of […] from human A1AR expressed in Flp-In-T-REx-293 cells assessed as inhibition constant; assay type: cell-based
T8 sequence (P30542 whole entry): T6 sequence (whole entry)

[16] = molecular target: T9, Adenosine receptor A3 (Homo sapiens) (UniProt P0DMS8); test: Displacement of […] from human A3AR expressed in HEK cells at 10 uM relative to control; assay type: cell-based
T9 sequence (whole entry): T1 sequence (P0DMS8 whole entry)

[17] = molecular target: T5, 5-hydroxytryptamine receptor 2B; test: Displacement of [3H]-LSD from human 5-HT2B receptor expressed in HEK cells at 10 uM incubated for 1 hr relative to control; assay type: cell-based
[18] = molecular target: T6, Adenosine receptor A1 (Homo sapiens); test: Displacement of […] from human A1AR expressed in Flp-In-T-REx-293 cells at 1 uM relative to control; assay type: cell-based; conditions: filed as agonist
[19] = molecular target: T7, 5-hydroxytryptamine receptor 2C (Homo sapiens); test: Binding affinity to 5HT2C receptor (unknown origin) at 10 uM relative to control; conditions: filed as antagonist
[20] = molecular target: T7, 5-hydroxytryptamine receptor 2C (Homo sapiens); test: Displacement of [3H]-Mesulergine from human 5-HT2C expressed in Flp-In-T-REx-293 cells at 10 uM incubated for 1 hr relative to control; assay type: cell-based; conditions: filed as antagonist
[21] = molecular target: T4, 5-hydroxytryptamine receptor 2A; test: Displacement of [3H]ketanserin from human 5-HT2A receptor expressed in HEK293 cells at 10 uM incubated for 1 hr; assay type: cell-based
[22] = molecular target: T5, 5-hydroxytryptamine receptor 2B; test: Displacement of [3H]-LSD from human 5-HT2B receptor expressed in HEK cells assessed as inhibition constant incubated for 1 hr; assay type: cell-based

5-hydroxytryptamine receptor 1D, sequence (P28221 whole entry): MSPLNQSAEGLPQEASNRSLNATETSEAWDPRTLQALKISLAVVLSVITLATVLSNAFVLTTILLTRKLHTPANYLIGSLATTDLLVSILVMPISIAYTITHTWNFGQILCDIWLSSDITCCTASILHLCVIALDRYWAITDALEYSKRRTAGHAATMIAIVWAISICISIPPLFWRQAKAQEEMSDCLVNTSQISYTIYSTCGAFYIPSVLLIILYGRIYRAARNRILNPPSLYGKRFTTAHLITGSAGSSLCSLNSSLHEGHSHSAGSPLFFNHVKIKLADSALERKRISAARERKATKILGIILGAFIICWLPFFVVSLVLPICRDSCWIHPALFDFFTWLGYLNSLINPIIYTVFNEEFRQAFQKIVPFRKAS

SMILES: O[C@H]1[C@H](n2cnc3c(NC(C4CCCCC4)C4CCCCC4)nc(Cl)nc32)[C@H]2C[C@@]2(CF)[C@H]1O
Ki [1]: 5500 nM
Ki [2]: 5040 nM
Ki ([3]; read-out: Ki): 163 nM
Ki [4]: 3600 nM
Activity [5]: -27%

Activity [6]: 31%
Activity [7]: 47%
SMILES: OC[C@H]1O[C@@H](n2cnc3c(NC(C4CCC4)C4CCC4)nc(Cl)nc32)[C@H](O)[C@@H]1O

Activity [8]: 1%
Ki [9]: 3900 nM
Activity [5]: -12%
SMILES: OC[C@@]12C[C@@H]1[C@@H](n1cnc3c(NC(C4CCCC4)C4CCCC4)nc(Cl)nc31)[C@H](O)[C@@H]2O

Activity [10]: 45%
Ki [11]: 601 nM
Activity [6]: 21%
Ki [12]: 1250 nM
SMILES: O[C@H]1[C@H](n2cnc3c(NC(C4CCC4)C4CCC4)nc(Cl)nc32)[C@H]2C[C@@]2(CSc2ccccc2F)[C@H]1O

SMILES: OC[C@@]12C[C@@H]1[C@@H](n1cnc3c(N[C@H](C4CCC4)C4CC4)nc(I)nc31)[C@H](O)[C@@H]2O
pKb [13]: 6.54
Activity [8]: 29%
pKb [14]: < 5
Ki ([3]; read-out: Ki): 670 nM
Ki ([3]; read-out: pKi (converted)): 603 nM
Ki [15]: 42.7 nM
Activity [16]: 34%
Activity ([5]; filed as agonist): 50%

Activity [17]: 29%
Activity [18]: 49%
SMILES: Clc1nc(NCC2CC2)c2nc[nH]c2n1

Activity [6]: 8%
Ki [12]: 368 nM
SMILES: OC[C@@]12C[C@@H]1[C@@H](n1cnc3c(NC(C4CCC4)C4CCC4)nc(Cl)nc31)[C@H](O)[C@@H]2O

SMILES: CNC(=O)[C@]12C[C@@H]1[C@@H](n1cnc3c(NC4CCCC4)nc(Cl)nc31)[C@H](O)[C@@H]2O
Ki [11]: 78.2 nM
Activity [6]: 0%
Activity [19]: 44%

SMILES: CSC[C@@]12C[C@@H]1[C@@H](n1cnc3c(NC(C4CCCC4)C4CCCC4)nc(SC)nc31)[C@H](O)[C@@H]2O
Activity [20]: 49%
Ki [21]: 9300 nM
Ki [22]: 222 nM
Ki [2]: 6620 nM
Ki [4]: 1200 nM
Activity [5]: -60%

— ChEMBL document CHEMBL5625223 (Eur J Med Chem, 2023)
